Results reported in publication PMC9030254, “Target Hopping from Protein Kinases to PXR: Identification of Small-Molecule Protein Kinase Inhibitors as Selective Modulators of Pregnane X Receptor from TüKIC Library” (Cells, 2022).

Experiments:
Test in all cases: Kinase profiling
Assay type in all cases: biochemical
[1] = target: T1, DYRK1A (Homo sapiens, UniProt Q13627)
T1 construct: purchased ProQinase (Freiburg, Germany)
Method: (§1) The analysis was performed by ProQinase (Freiburg, Germany).

[2] = target: T2, CLK2 (Homo sapiens, UniProt P49760)
T2 construct: purchased ProQinase (Freiburg, Germany)
T2 sequence (P49760 whole entry): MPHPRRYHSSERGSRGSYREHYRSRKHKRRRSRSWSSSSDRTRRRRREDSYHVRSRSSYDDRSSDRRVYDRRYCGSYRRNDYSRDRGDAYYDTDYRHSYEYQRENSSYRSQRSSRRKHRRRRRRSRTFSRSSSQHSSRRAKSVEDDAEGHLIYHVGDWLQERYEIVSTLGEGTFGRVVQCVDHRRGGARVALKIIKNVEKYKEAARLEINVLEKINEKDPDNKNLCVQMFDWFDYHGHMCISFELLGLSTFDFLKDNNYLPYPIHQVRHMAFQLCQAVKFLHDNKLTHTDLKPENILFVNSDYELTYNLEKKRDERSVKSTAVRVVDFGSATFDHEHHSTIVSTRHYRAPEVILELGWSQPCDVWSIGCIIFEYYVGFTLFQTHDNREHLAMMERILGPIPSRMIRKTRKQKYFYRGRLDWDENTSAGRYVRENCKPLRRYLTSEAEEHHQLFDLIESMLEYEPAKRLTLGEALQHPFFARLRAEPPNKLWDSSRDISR
Method: as §1

[3] = target: T3, FRK (Homo sapiens, UniProt P42685)
T3 construct: purchased ProQinase (Freiburg, Germany)
Method: as §1

[4] = target: T4, JNK1 (Homo sapiens, UniProt P45983)
T4 construct: purchased ProQinase (Freiburg, Germany)
T4 sequence (P45983 whole entry): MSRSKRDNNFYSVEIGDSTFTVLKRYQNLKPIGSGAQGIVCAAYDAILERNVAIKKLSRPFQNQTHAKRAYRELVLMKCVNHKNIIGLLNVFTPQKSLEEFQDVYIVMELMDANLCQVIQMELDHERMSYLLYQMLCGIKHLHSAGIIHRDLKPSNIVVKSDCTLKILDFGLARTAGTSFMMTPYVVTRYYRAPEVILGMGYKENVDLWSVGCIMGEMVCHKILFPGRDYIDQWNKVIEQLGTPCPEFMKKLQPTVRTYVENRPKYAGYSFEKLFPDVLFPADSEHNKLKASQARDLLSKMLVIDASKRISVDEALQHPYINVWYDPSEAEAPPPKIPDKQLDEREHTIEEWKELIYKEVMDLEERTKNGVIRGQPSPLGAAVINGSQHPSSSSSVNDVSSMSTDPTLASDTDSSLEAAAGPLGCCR
Method: as §1

[5] = target: T5, CDK9/CycT1 (Homo sapiens, UniProt P50750)
T5 construct: purchased ProQinase (Freiburg, Germany)
T5 sequence (P50750 whole entry): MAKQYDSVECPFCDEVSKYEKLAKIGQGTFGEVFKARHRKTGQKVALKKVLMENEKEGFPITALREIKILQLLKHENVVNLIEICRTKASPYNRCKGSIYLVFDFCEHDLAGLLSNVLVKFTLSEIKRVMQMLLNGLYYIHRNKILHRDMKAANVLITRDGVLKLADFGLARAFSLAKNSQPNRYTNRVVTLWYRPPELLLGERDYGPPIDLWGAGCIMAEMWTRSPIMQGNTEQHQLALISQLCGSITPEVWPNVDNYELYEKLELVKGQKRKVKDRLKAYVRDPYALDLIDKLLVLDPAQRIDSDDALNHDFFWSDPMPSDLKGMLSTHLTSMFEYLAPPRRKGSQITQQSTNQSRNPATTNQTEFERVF
T5 sequence (O60563 whole entry partner): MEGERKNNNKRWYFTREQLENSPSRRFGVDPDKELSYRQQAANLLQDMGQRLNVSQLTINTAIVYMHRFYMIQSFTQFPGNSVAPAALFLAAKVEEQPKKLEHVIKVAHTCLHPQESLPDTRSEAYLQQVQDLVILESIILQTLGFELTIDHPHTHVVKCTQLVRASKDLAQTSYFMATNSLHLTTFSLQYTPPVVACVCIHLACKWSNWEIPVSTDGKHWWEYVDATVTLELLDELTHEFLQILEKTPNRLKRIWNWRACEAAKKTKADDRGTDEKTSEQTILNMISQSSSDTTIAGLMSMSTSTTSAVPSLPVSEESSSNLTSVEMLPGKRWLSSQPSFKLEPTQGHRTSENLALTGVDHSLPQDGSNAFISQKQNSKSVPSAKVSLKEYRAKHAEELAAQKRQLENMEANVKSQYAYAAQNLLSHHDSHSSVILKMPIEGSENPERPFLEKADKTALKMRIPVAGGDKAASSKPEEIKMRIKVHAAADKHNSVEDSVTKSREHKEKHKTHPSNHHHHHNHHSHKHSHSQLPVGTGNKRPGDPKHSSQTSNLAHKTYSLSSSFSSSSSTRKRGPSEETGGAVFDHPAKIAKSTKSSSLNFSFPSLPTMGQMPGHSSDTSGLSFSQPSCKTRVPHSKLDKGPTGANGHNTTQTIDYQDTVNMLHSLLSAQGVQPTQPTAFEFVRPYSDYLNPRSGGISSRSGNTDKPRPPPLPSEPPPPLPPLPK
Method: as §1

[6] = target: T6, CK2alpha1 (Homo sapiens, UniProt P68400)
T6 construct: purchased ProQinase (Freiburg, Germany)
T6 sequence (P68400 whole entry): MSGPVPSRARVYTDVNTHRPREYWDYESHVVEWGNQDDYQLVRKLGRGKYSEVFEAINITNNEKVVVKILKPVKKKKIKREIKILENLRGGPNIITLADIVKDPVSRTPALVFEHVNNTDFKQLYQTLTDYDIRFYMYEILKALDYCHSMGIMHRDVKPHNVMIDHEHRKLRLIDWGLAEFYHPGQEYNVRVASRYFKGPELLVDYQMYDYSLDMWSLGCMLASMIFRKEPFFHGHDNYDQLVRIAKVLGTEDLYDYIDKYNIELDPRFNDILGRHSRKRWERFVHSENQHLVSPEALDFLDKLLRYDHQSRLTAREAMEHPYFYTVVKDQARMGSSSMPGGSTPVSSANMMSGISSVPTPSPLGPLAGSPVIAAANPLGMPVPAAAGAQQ
Method: as §1

[7] = target: T7, AKT2 (Homo sapiens, UniProt P31751)
T7 construct: purchased ProQinase (Freiburg, Germany)
T7 sequence (P31751 whole entry): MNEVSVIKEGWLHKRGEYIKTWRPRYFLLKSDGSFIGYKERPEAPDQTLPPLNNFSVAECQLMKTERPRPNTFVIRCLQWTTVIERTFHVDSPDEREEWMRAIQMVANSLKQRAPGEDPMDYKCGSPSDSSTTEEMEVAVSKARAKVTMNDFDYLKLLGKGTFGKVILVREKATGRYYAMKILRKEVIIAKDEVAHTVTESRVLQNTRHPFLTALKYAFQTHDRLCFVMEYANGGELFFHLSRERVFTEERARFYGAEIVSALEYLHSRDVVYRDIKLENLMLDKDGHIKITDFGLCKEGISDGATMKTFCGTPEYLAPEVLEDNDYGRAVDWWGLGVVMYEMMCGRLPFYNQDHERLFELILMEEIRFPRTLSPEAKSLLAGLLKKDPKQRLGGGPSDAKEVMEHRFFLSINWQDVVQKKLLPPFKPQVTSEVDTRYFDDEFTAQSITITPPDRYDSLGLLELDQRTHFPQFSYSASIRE
Method: as §1

[8] = target: T8, ITK (Homo sapiens, UniProt Q08881)
T8 construct: purchased ProQinase (Freiburg, Germany)
T8 sequence (Q08881 1-620): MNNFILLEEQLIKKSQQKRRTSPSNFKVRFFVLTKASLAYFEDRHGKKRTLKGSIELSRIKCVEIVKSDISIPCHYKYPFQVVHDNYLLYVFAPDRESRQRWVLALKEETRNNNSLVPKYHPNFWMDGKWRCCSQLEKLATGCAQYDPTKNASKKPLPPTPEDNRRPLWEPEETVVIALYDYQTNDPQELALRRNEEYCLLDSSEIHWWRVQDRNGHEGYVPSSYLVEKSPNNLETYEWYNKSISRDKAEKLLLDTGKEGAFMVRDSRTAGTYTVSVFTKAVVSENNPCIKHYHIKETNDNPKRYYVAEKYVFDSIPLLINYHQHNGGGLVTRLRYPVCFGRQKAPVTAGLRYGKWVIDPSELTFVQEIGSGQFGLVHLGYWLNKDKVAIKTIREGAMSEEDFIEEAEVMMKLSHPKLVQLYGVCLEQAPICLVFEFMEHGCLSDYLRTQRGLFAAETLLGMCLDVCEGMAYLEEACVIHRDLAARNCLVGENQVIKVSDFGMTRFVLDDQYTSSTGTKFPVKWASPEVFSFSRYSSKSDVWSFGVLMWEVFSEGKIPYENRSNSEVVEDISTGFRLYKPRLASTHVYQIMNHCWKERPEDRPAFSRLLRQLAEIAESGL
Method: as §1

[9] = target: T9, CAMKK1 (Homo sapiens, UniProt Q8N5S9)
T9 construct: purchased ProQinase (Freiburg, Germany)
T9 sequence (Q8N5S9 whole entry): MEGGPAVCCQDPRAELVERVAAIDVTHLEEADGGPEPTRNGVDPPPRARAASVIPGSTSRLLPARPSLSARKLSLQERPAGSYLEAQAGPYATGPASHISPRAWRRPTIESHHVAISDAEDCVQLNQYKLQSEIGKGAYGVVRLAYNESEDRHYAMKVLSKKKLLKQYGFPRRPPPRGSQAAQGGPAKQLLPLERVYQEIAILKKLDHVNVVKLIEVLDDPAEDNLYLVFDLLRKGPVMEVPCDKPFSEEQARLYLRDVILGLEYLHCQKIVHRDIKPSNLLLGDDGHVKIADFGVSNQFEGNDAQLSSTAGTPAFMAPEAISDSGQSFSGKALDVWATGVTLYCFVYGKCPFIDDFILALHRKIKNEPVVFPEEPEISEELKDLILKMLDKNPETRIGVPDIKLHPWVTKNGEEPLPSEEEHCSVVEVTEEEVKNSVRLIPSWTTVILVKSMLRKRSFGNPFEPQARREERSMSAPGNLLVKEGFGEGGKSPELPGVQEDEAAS
Method: as §1

[10] = target: T10, GRK3 (Homo sapiens, UniProt P35626)
T10 construct: purchased ProQinase (Freiburg, Germany)
T10 sequence (P35626 1-688): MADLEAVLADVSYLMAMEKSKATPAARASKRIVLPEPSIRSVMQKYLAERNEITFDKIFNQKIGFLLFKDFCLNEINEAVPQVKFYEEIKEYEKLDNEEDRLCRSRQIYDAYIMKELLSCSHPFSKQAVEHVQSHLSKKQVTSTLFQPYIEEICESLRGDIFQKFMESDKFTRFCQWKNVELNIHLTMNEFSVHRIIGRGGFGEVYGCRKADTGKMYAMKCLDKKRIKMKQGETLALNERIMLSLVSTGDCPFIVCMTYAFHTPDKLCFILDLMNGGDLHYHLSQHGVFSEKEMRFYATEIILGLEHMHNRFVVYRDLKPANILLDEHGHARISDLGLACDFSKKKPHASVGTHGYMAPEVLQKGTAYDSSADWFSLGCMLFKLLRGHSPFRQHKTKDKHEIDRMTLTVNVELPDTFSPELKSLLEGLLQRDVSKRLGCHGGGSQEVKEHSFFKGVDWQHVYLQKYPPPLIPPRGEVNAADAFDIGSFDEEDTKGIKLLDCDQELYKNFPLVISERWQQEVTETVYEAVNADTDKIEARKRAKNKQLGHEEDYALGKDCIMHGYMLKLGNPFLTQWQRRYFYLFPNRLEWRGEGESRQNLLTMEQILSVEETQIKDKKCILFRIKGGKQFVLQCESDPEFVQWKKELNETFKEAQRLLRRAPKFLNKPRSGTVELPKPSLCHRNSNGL
Method: as §1

[11] = target: T11, IKKepsilon (Homo sapiens, UniProt Q14164)
T11 construct: purchased ProQinase (Freiburg, Germany)
T11 sequence (Q14164 1-716): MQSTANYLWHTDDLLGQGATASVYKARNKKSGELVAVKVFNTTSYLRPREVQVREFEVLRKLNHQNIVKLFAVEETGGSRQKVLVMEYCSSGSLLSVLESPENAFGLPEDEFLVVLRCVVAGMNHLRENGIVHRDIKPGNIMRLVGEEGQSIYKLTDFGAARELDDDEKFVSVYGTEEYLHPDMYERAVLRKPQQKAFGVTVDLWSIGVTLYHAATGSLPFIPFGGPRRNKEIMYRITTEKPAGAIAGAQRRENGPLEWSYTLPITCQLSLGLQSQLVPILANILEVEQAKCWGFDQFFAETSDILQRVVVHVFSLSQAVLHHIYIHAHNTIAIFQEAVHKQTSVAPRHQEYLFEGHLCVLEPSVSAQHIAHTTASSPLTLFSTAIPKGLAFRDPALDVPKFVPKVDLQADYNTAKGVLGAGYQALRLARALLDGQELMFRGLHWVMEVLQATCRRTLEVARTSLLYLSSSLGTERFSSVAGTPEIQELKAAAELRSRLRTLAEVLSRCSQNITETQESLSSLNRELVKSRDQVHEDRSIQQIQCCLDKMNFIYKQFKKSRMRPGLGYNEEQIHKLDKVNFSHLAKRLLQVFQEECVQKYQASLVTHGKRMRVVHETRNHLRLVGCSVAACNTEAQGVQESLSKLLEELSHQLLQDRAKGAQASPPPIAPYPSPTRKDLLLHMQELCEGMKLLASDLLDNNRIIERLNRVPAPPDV
Method: as §1

[12] = target: T12, PAK3 (Homo sapiens, UniProt O75914)
T12 construct: purchased ProQinase (Freiburg, Germany)
Method: as §1

[13] = target: T13, BLK (Homo sapiens, UniProt P51451)
T13 construct: purchased ProQinase (Freiburg, Germany)
T13 sequence (P51451 whole entry): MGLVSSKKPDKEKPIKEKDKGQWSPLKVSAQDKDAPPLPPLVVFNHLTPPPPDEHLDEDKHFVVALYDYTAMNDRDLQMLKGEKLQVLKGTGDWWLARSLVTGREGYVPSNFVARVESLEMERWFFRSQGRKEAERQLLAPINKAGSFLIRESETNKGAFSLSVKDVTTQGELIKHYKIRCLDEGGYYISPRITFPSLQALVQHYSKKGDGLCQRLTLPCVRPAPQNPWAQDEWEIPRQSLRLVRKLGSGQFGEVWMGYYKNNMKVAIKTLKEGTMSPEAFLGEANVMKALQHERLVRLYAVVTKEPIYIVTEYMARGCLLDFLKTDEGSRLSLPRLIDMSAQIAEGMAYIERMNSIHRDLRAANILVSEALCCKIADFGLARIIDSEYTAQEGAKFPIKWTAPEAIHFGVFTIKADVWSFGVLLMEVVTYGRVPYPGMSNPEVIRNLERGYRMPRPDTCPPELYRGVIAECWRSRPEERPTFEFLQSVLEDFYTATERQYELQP
Method: as §1

[14] = target: T14, MLK4 (Homo sapiens, UniProt Q5TCX8)
T14 construct: purchased ProQinase (Freiburg, Germany)
T14 sequence (Q5TCX8 whole entry): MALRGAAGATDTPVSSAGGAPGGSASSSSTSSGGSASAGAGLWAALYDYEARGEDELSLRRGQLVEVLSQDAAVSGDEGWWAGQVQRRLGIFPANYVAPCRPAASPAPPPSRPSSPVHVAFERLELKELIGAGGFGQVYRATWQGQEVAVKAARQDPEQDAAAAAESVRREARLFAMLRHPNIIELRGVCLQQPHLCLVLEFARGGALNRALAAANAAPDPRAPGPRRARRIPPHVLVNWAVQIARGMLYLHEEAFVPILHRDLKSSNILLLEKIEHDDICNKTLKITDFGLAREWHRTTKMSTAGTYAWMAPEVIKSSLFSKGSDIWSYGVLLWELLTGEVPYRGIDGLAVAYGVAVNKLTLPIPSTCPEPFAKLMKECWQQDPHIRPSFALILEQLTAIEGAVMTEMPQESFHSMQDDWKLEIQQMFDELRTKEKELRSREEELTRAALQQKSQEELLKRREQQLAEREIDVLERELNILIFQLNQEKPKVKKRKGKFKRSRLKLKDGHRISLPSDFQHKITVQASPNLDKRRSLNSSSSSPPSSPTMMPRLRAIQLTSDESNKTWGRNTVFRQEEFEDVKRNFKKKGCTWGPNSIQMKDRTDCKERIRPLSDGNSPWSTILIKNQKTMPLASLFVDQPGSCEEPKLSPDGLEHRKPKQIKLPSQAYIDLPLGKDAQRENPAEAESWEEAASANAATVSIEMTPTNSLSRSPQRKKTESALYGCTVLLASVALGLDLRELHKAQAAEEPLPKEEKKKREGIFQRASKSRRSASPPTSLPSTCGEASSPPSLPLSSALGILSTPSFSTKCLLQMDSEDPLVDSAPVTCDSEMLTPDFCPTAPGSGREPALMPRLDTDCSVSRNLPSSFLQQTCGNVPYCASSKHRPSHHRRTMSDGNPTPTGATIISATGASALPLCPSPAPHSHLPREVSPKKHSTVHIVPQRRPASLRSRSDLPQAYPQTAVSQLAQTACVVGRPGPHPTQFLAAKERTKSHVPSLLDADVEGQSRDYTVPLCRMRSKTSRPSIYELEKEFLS
Method: as §1

SMILES	Residual activity ([1]; 1.0E-05 M)	Residual activity ([1]; 1.0E-06 M)	Residual activity ([2]; 1.0E-05 M)	Residual activity ([2]; 1.0E-06 M)	Residual activity ([3]; 1.0E-05 M)	Residual activity ([3]; 1.0E-06 M)	Residual activity ([4]; 1.0E-05 M)	Residual activity ([4]; 1.0E-06 M)	Residual activity ([5]; 1.0E-05 M)	Residual activity ([5]; 1.0E-06 M)	Residual activity ([6]; 1.0E-05 M)	Residual activity ([6]; 1.0E-06 M)	Residual activity ([7]; 1.0E-05 M)	Residual activity ([7]; 1.0E-06 M)	Residual activity ([8]; 1.0E-05 M)	Residual activity ([8]; 1.0E-06 M)	Residual activity ([9]; 1.0E-05 M)	Residual activity ([9]; 1.0E-06 M)	Residual activity ([10]; 1.0E-05 M)	Residual activity ([10]; 1.0E-06 M)	other results
O=C(Cc1ccccc1)Nc1ccc(F)c(Nc2ccc3c(c2)CCCCC3=O)c1 [Compound 100]	98 % of control	92 % of control	107 % of control	117 % of control	104 % of control	107 % of control	76 % of control	100 % of control	89 % of control	95 % of control	106 % of control	102 % of control	82 % of control	92 % of control	75 % of control	94 % of control	80 % of control	78 % of control	144 % of control	118 % of control	Residual activity ([11]; 1.0E-05 M): 101 % of control; Residual activity ([11]; 1.0E-06 M): 103 % of control; Residual activity ([12]; 1.0E-05 M): 74 % of control; Residual activity ([12]; 1.0E-06 M): 88 % of control; Residual activity ([13]; 1.0E-05 M): 110 % of control; Residual activity ([13]; 1.0E-06 M): 118 % of control; Residual activity ([14]; 1.0E-05 M): 102 % of control; Residual activity ([14]; 1.0E-06 M): 94 % of control
O=C(Nc1ccc(F)c(Nc2ccc3c(c2)CCCCC3=O)c1)c1cccc(F)c1 [Compound 109]	92 % of control	92 % of control	103 % of control	112 % of control	102 % of control	107 % of control	81 % of control	90 % of control	93 % of control	92 % of control	98 % of control	102 % of control	92 % of control	92 % of control	82 % of control	93 % of control	75 % of control	77 % of control	138 % of control	122 % of control	Residual activity ([11]; 1.0E-05 M): 92 % of control; Residual activity ([11]; 1.0E-06 M): 95 % of control; Residual activity ([12]; 1.0E-05 M): 79 % of control; Residual activity ([12]; 1.0E-06 M): 92 % of control; Residual activity ([13]; 1.0E-05 M): 82 % of control; Residual activity ([13]; 1.0E-06 M): 82 % of control; Residual activity ([14]; 1.0E-05 M): 99 % of control; Residual activity ([14]; 1.0E-06 M): 99 % of control
